Experimental data reported in PubChem BioAssay AID602296 (Broad Institute, 2012).
Records with an inconclusive call do not appear. Activity calls are given as the source filed them.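 The calls were made as follows: active = fitted activation curve crossing 40% at a concentration no higher than the sample's top valid tested dose; inconclusive = flat fitted curve at 30% to 70% activation, or poor curve fit; inactive = signal decrease, flat curve within 30%, or the rest.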

The compounds below were run on NIH3T3-HGL HSF-1 response element luciferase, 48 h (assay: sustained heat shock response element induction – cell-based, mouse, luciferase, cherry-pick, dose, confirmation (AID 602296);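 also: test compounds applied by themselves with no MG132 co-treatment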).

Compound | AC40
CCCn1c(SCc2nc3sc(C)c(C)c3c(=O)[nH]2)nc2ccccc2c1=O | > 26 µM (inactive)
CC1=CC(=O)C=C(C)C1=NOC(=O)/C=C\c1ccccc1 | > 26 µM (inactive)
Cc1cc(-c2nnc(CCC(=O)N(C)Cc3cccc4ccccc34)o2)no1 | 12 µM
Cc1ccccc1CSc1nsc(N)n1 | 16.5 µM
O=C(NC1C(=O)NNC1c1ccccc1)c1ccccc1 (stereo not drawn) | 6.88 µM
CCCc1cc(=O)[nH]c(SCC(=O)Nc2ccc(C)cc2)n1 | > 26 µM (inactive)
Cc1[nH]c2ccccc2c1/C=C(\C#N)C(=O)NCC1CCCO1 (stereo not drawn) | 9.18 µM
N#C/C(=C(\O)C(F)(F)F)c1nnc2n1CCCCC2 | > 26 µM (inactive)
CC(=O)c1ccc(NC(=S)N2C(C)CCCC2C)cc1 (stereo not drawn) | 20.8 µM
Cc1nc2scc(-c3ccc(Cl)cc3)c2c(=O)n1N | > 26 µM (inactive)
CCOc1ncccc1C(=O)NCCc1c[nH]c2ccccc12 | > 26 µM (inactive)
CC1(c2cccs2)CC(c2cccs2)=C(C#N)C(=O)N1 (stereo not drawn) | > 26 µM (inactive)
CCCSc1nnc2n(-c3ccccc3OC)c(=O)c3c4c(sc3n12)CCC4 | > 26 µM (inactive)
Cc1nc2ccccc2nc(C)c1=NOCc1ccccc1Cl | 3.97 µM
CC1(C)CC(=O)C=C(NC2=CC3OC(c4ccccc4)OCC3OC2=O)C1 (stereo not drawn) | 13.2 µM
CCc1cc(C(c2ccccc2OC)N2CCOCC2)c(NC(=O)c2ccccc2)s1 (stereo not drawn) | > 26 µM (inactive)
COC(=O)C1(O)CC(CC(C)C)=NN1C(=O)c1ccccc1 (stereo not drawn) | 20.3 µM
S=C(Nc1ccccc1)Nc1ccc(Cl)cn1 | 21 µM
COc1ccc(/C=C\c2nc(=O)c3ccccc3o2)cc1 | > 26 µM (inactive)
O=C1C2CC=CCC2C(=O)N1c1ccc(NCCc2ccccc2)c([N+](=O)[O-])c1 (stereo not drawn) | 3.31 µM
CCCCOc1ccc(C(=O)N/N=C/c2cn[nH]c2-c2ccc(OC)c(OC)c2)cc1 | > 26 µM (inactive)
COc1ccc(C2C(C(C)=O)=C(O)C(=O)N2c2ccc(C)cc2)cc1 (stereo not drawn) | > 26 µM (inactive)

Compound | AC40
CCOc1cccc(/C=C/c2ccc3cccc(O)c3n2)c1OC | > 26 µM (inactive)
Cc1cccc(N2CCN(C(=O)CSCc3c(C)noc3C)CC2)c1C | 20.1 µM
CN(C)C(=O)c1ccc(=O)n(Cc2ccc(Cl)cc2Cl)c1 | > 26 µM (inactive)
Cc1ccc(-c2nc3ncccn3c2Nc2ccccc2C)o1 | > 26 µM (inactive)
O=C1/C(=C\c2ccc(Br)o2)Cc2ccccc21 | 10.7 µM
Cc1ccc(NC(=O)Cn2c(CCC(=O)O)ccc2-c2cccs2)cc1 | > 26 µM (inactive)
CSC(=NC#N)N1CCN(c2ccc(Cl)cc2)CC1 | 25.3 µM
Cc1cc(-c2nc3ncccc3o2)ccc1NC(=S)NC(=O)C(C)C | 7.32 µM
CCc1nnc(N/N=C/c2ccccc2Cl)n1N | 21.9 µM
Cc1nnc(Sc2nc3c(c(=O)n(C)c(=O)n3C)n2Cc2ccccc2Cl)s1 | > 26 µM (inactive)
COC(=O)c1ccc(N(CC(=O)NC2CCCCC2)C(=O)CNC(=O)c2ccco2)cc1 | > 26 µM (inactive)
O=C(N/N=C/c1ccc(-c2cccc([N+](=O)[O-])c2)o1)c1ccccc1O | > 26 µM (inactive)
Cc1cc(C)cc(NC(=O)CN(C)S(=O)(=O)c2cnc[nH]2)c1 | > 26 µM (inactive)
O=C(NCC1CCCO1)c1nn2c(C(F)(F)F)cc(-c3cc(Br)cs3)nc2c1Br (stereo not drawn) | > 26 µM (inactive)
NC1=NC(=O)/C(=C/c2cn(Cc3ccccc3)c3ccccc23)S1 | 9.09 µM
O=C(Cc1cccs1)NCc1ccccc1Br | 1.77 µM
COc1ccc(/C=C/C(=O)OC2CCCN(C)C2)cc1 (stereo not drawn) | 12.6 µM
CCOC(=O)/C=C/C(=O)N1CCc2ccccc21 | > 26 µM (inactive)
O=C(N/N=C/CCc1ccccc1)c1ccccc1 | 15.5 µM
NC(N)=NS(=O)(=O)c1ccc(NC(=S)NC(=O)c2ccc(Br)cc2)cc1 | 17.5 µM
O=C(NCc1cccc(F)c1)c1noc2c1CCCC2 | 6.03 µM
O[C@@H]1C2CCCC1[C@]1(O)CCCCC1C2 (stereo partly drawn) | > 26 µM (inactive)

Compound | AC40
Cc1cc(C)n2nc(C(=O)N/N=C/c3c4ccccc4cc4ccccc34)nc2n1 | > 12 µM (inactive)
CN(C)CCNC(=O)/C(=C/c1ccc(-c2cccc(Cl)c2)o1)NC(=O)c1ccccc1 | > 26 µM (inactive)
O=C(CSc1nc2nccnc2c(=O)n1Cc1cccs1)Nc1ccccc1F | 9.52 µM
Cn1c(Cl)cnc1C1CC(=O)c2cc(Cl)ccc2O1 (stereo not drawn) | > 26 µM (inactive)
CC1=C(C(=O)N2CCOCC2)C(c2c(C)cc(C)cc2C)NC(=S)N1 (stereo not drawn) | > 26 µM (inactive)
O=C(NCc1ccco1)C1CC(O)CN1C(=O)Nc1ccccc1 (stereo not drawn) | > 26 µM (inactive)
CC(C)(C)c1[nH]ncc1[N+](=O)[O-] | > 26 µM (inactive)
COCCCN(CC(=O)O)S(=O)(=O)c1cccc(Cl)c1 | > 26 µM (inactive)
O=C(Nc1ccc2c(c1)C(=O)OC2)c1ccc(Cl)cc1 | 12.2 µM
O=[N+]([O-])c1ccc(S(=O)(=O)N2CCSC2c2ccco2)cc1 (stereo not drawn) | > 26 µM (inactive)
COC(=O)c1cnc(N2CCCN(S(=O)(=O)c3ccc(C(F)(F)F)cc3)CC2)nc1C(F)(F)F | > 26 µM (inactive)
Cn1c(CCCOc2ccc(Cl)cc2Cl)nnc1SCC(=O)Nc1cccc(F)c1 | 20.2 µM
C=CC[n+]1c(-c2ccc(OC)cc2)csc1NNC(=O)Nc1ccccc1 | > 12 µM (inactive)
CCCCC(=O)OCC(=O)c1[nH]c(C)c(C(=O)OCC)c1C | 7.5 µM
C=CCN(C(=O)CCc1ccccc1OC)c1nc(-c2ccc(S(C)(=O)=O)cc2)cs1 | > 26 µM (inactive)
Cc1ccc(CN2CCN(CC(C)C)C(CCO)C2)s1 (stereo not drawn) | 1.66 µM
Cc1nn(C(C)C(=O)NCCCN2CCCCC2C)c(=O)c2c1sc1ccccc12 (stereo not drawn) | > 26 µM (inactive)
O=C(CCC1CCCN(C(=O)c2ccc3cc[nH]c3c2)C1)NCc1ccc(F)c(F)c1 (stereo not drawn) | 14.8 µM
CCCCc1c(O)nc(SCC(=O)N2CCOCC2)n(-c2ccc(OC)cc2)c1=O | > 26 µM (inactive)
OCC1(CCCc2ccccc2)CCN(C2CCSCC2)CC1 | > 26 µM (inactive)
Cc1cc(/C=C(/C#N)c2cccc(Cl)c2)c(C)n1C | > 26 µM (inactive)
CC(OC(=O)/C=C/c1ccc2ccccc2n1)C(=O)NCc1ccccc1 (stereo not drawn) | 25.9 µM

Compound | AC40
Cn1c(CN2CCN(C(=O)c3ccc(F)cc3)CC2)nc2cc([N+](=O)[O-])ccc21 | > 26 µM (inactive)
CCOC(=O)C(=O)/C(C#N)=C/Nc1ccccc1 | > 26 µM (inactive)
O=C(Nc1cccn2ncnc12)C(F)(F)F | > 26 µM (inactive)
CC(C)(C)c1ccc(COc2ccsc2C(=O)O)cc1 | 4.42 µM
O=C(c1ccc2c(=O)n(C3CCCC3)c(=S)[nH]c2c1)N1CCc2ccccc21 | > 26 µM (inactive)
COc1ccc(-c2nnc3ccc(SCC(=O)NCC4CCCO4)nn23)cc1 (stereo not drawn) | > 26 µM (inactive)
CCC(C)n1c(SCC(=O)NC(=O)Nc2ccc3c(c2)OCCO3)nc2ccccc2c1=O (stereo not drawn) | > 26 µM (inactive)
CC1CCCCN1C(=O)COc1ccccc1F (stereo not drawn) | 21.2 µM
CSc1c(C#N)c(N)nc2sc(C(=O)c3ccccc3)c(N)c12 | 5.48 µM
CN1CCC(=NNc2ccc(S(=O)(=O)N3CCOCC3)cc2[N+](=O)[O-])CC1 | > 26 µM (inactive)
O=C(NC1CCCCC1)C1CCCN1S(=O)(=O)c1cccc2nsnc12 (stereo not drawn) | > 26 µM (inactive)
CCC(Sc1nc2cc3c(cc2c(=O)n1Cc1ccco1)OCO3)C(=O)NCCOC (stereo not drawn) | > 26 µM (inactive)
Brc1cnc2nc(SC/C=C/c3ccccc3)[nH]c2c1 | 20.8 µM
Cc1c(Cl)ccc2c1NC(=O)C21NC(CCC(N)=O)[C@H]2C(=O)N(c3ccc(Cl)cc3)C(=O)[C@H]21 (stereo partly drawn) | > 12 µM (inactive)
O=[N+]([O-])c1ccc(-c2csc(Nc3ccccc3)[n+]2Cc2ccccc2)cc1 | 10.9 µM
CCOc1ccc(CN(C)C(=O)CNC(=O)c2ccc3ccccc3c2)cc1OC | > 26 µM (inactive)
Nc1ccc(Sc2cnn(-c3ccccc3)c(=O)c2Cl)cc1 | 8.39 µM
CC1(C)Cc2c(C#N)c(N)n(-c3ccccc3)c(=S)c2CO1 | > 26 µM (inactive)
Cn1c2ccc(F)cc2c2ncn(CCN3CCOCC3)c(=O)c21 | > 26 µM (inactive)
COc1ccc(C2(C)NC(=O)N(CC3CCCCC3)C2=O)cc1 (stereo not drawn) | > 26 µM (inactive)
O=C(O)C1CCCCC1C(=O)Nc1ccc2c(c1)CCC2 (stereo not drawn) | 5.08 µM
CC[C@@]1(O)C(=O)OCc2c1cc1n(c2=O)Cc2cc3c(N)cccc3nc2-1 | 15.9 µM

Compound | AC40
O=C(O)CC1=C(Nc2ccccc2)C(=O)N(c2ccccc2)C1c1ccc(Cl)cc1 (stereo not drawn) | 5.67 µM
COc1ccc(N=C2NC(=O)/C(=C\C=C\c3ccco3)S2)cc1 | 12.1 µM
Cc1ccc(C(=O)Cn2nc(C(=O)O)c3ccccc3c2=O)cc1C | > 26 µM (inactive)
O=C(CCCC1=NS(=O)(=O)c2ccccc2N1)N1CCN(c2ccccc2)CC1 | > 26 µM (inactive)
CCN(CC)C(=O)c1ccc(C)c(Br)c1 | > 26 µM (inactive)
COC(=O)c1ccc(C(=O)OC)c(NC(=O)C(C)(C)C)c1 | > 26 µM (inactive)
O=Nc1c(-c2ccccc2)[nH]n(-c2ccccc2)c1=O | 20.7 µM
O=c1[nH]c2ccc(S(=O)(=O)Nc3ccc(-c4nnc5n4CCCCC5)cc3)cc2o1 | > 26 µM (inactive)
O=[N+]([O-])c1ccc(Sc2ccccc2)nc1 | > 26 µM (inactive)
CCN1C(=O)CC(N2CCN(c3ccc(C(=O)c4ccccc4)cc3)CC2)C1=O (stereo not drawn) | 3.85 µM
CCc1[nH]nc2c1C1(CCN(C(=O)OCc3ccccc3)CC1)C(C#N)=C(N)O2 | > 26 µM (inactive)
Cc1nc(/C(N)=N/OC(=O)Cc2ccccc2)no1 | 22.2 µM
Cc1ccc(CC2SC(N=C(N)N)=NC2=O)cc1 (stereo not drawn) | > 26 µM (inactive)
S=C(N/N=C/c1cccs1)NC1CC2CCC1C2 (stereo not drawn) | 4.41 µM
Nc1c(-c2ccsc2)cnc2ncnn12 | > 26 µM (inactive)
S=c1[nH]nc(-c2ccccc2)n1/N=C/c1ccc(-c2ccccc2Cl)o1 | > 12 µM (inactive)
N#Cc1ccc(OCCN2CCc3ccccc3C2)cc1 | 8.01 µM
CC(=O)SC(C[N+](=O)[O-])c1cn(C(C)=O)c2ccccc12 (stereo not drawn) | > 26 µM (inactive)
CCS(=O)(=O)C(=C1NCCO1)S(=O)(=O)CC | > 26 µM (inactive)
Cc1noc(NS(=O)(=O)c2ccc(NC(=O)c3oc4ccc(F)cc4c3C)cc2)c1C | > 26 µM (inactive)
